Laboratory results taken from US10485236B2, “Triazole derivatives, intermediates thereof and their use as fungicides” (Bayer CropScience Aktiengesellschaft, priority 2015, dated 2019).
Marks after values point to notes of the source that are not given here.

system: not listed separately; assay: Measurement of LogP values by HPLC on reversed phase columns (EEC directive 79/831 Annex V.A8); type: physicochemical; details: not given
Procedure: [table] If more than one Log P value is available within the same method, all the values are given and separated by “+”. Calibration was done with straight-chain alkan2-ones (with 3 to 16 carbon atoms) with known Log P values (measurement of Log P values using retention times with linear interpolation between successive alkanones). Lambda-max-values were determined using UV-spectra from 200 nm to 400 nm and the peak values of the chromatographic signals.

| Compound | LogP |
| --- | --- |
| CC(O)(Cn1cncn1)c1ccc(Oc2ccc(Cl)cc2)nc1Cl (racemic) [I.09] | 2.66^[a] |
| CC(O)(Cn1cncn1)c1cnc(Oc2ccc(Cl)cc2)cc1Cl (single isomer, unassigned) [I.54] | 2.53^[a] |
| OC(Cn1cncn1)c1ccc(Oc2ccc(S(F)(F)(F)(F)F)cc2)nc1Cl (racemic) [I.34] | 2.90^[a] |
| CC(=O)c1ccc(Oc2ccc(S(F)(F)(F)(F)F)cc2)nc1C(F)(F)F [V.16] | 4.09^[a] |
| FC(F)c1ccc(Oc2ccc(C3(C4CC4)CO3)c(C(F)(F)F)n2)cc1 (stereo not drawn) [IX.05] | 4.49^[a] |
| CC(O)(Cn1cncn1)c1cnc(Oc2ccc(Cl)cc2)cc1Cl (single isomer, unassigned) [I.53] | 2.53^[a] |
| COc1ccc(Oc2ccc(C(C)(O)Cn3cncn3)c(Cl)n2)c(Cl)c1 (racemic) [I.31] | 2.56^[a] |
| OC(Cn1cncn1)c1ccc(Oc2ccc(Cl)c(Cl)c2)nc1Cl (racemic) [I.10] | 2.80^[a] |
| CC(O)(Cn1cncn1)c1cnc(Oc2ccc(OC(F)(F)F)cc2)cc1C(F)(F)F (stereo not drawn) [I.44] | 3.23^[a] |
| Cc1cc(Cl)ccc1Oc1ccc(C(O)Cn2cncn2)c(Cl)n1 (racemic) [I.15] | 2.75^[a] |
| CC(=O)c1cnc(Oc2ccc(Br)cc2)cc1C(F)(F)F [V.27] | 3.99^[a] |
| OC(Cn1cncn1)c1ccc(Oc2ccc(C(F)F)cc2)nc1Cl (stereo not drawn) [I.38] | 2.17^[a] |
| OC(Cn1cncn1)c1ccc(Oc2ccc(Cl)cc2)nc1OC(F)(F)F (racemic) [I.26] | 2.92^[a] |
| OC(Cn1cncn1)c1ccc(Oc2ccc(F)cc2)nc1Cl (racemic) [I.17] | 2.08^[a] |
| CC(=O)c1ccc(Oc2ccc(F)cc2)nc1Cl [V.12] | 3.11^[a] |
| CC(O)(Cn1cncn1)c1cnc(Oc2ccc(Cl)cc2)cc1C(F)(F)F (single isomer, unassigned) [I.46] | 2.93^[a] |
| CC(=O)c1ccc(Oc2c(F)cc(Cl)cc2F)nc1C(F)(F)F [V.31] | 4.06^[a] |
| CCCCC(O)(Cn1cncn1)c1ccc(Oc2ccc(Cl)cc2)nc1C(F)(F)F (stereo not drawn) [I.98] | 3.87^[a] |

| Compound | LogP |
| --- | --- |
| CC(O)c1ccc(Oc2ccc(C(O)Cn3cncn3)c(Cl)n2)cc1 (mixture of isomers) [I.24] | 1.48^[a] |
| CC(O)(Cn1cncn1)c1ccc(Oc2ccc(Cl)cc2)nc1Cl (single isomer, unassigned) [I.51] | 2.62^[a] |
| CC(=O)c1ccc(Oc2ccc(Cl)cc2)nc1OC(F)(F)F [V.06] | 4.37^[a] |
| OC(Cn1cncn1)c1cnc(Oc2ccc(C(F)(F)F)cc2)cc1C(F)(F)F (single isomer, unassigned) [I.92] | 2.86^[a] |
| OC(Cn1cncn1)c1cnc(Oc2ccc(C(F)(F)F)cc2)cc1Cl (stereo not drawn) [I.88] | 2.64^[a] |
| CC(O)(Cn1cncn1)c1cnc(Oc2ccc(C(F)(F)F)cc2)cc1C(F)(F)F (stereo not drawn) [I.50] | 3.11^[a] |
| OC(Cn1cncn1)(c1ccc(Oc2ccc(Cl)cc2)nc1C(F)(F)F)C1CC1 (stereo not drawn) [I.71] | 3.35^[a] |
| OC(Cn1cncn1)c1ccc(Oc2ccc(Cl)cc2F)nc1C(F)(F)F (stereo not drawn) [I.90] | 2.88^[a] |
| CC(=O)c1cnc(Oc2ccc(C(F)(F)F)cc2)cc1Cl [V.18] | 3.87^[a] |
| CC(=O)c1ccc(Oc2ccc(C(F)(F)F)cc2)nc1C(F)(F)F [V.17] | 3.96^[a] |
| CC(=O)c1ccc(Oc2ccc(Cl)cc2)nc1C(F)F [V.05] | 3.35^[a] |
| OC(Cn1cncn1)c1ccc(Oc2ccc(Cl)cc2)nc1C(F)F (racemic) [I.25] | 2.44^[a] |
| CC(O)(Cn1cncn1)c1cnc(Oc2ccc(Cl)cc2F)cc1C(F)(F)F (stereo not drawn) [I.58] | 3.02^[a] |
| CC(O)(Cn1cncn1)c1cnc(Oc2ccc(Cl)cc2)cc1Cl (racemic) [I.08] | 2.50^[a] |
| CC(O)(Cn1cncn1)c1ccc(Oc2ccc(Cl)cc2)nc1C(F)(F)F (stereo not drawn) [I.96] | 2.68^[a] |
| CC(=O)c1ccc(Oc2ccc(Cl)cc2)nc1Cl [V.26] | 3.45^[a] |
| CC(O)(Cn1cncn1)c1ccc(Oc2ccc(Cl)cc2F)nc1C(F)(F)F (stereo not drawn) [I.66] | 2.80^[a] |

Next, values leading:

| LogP | Compound |
| --- | --- |
| 4.34^[a] | O=C(CBr)c1cnc(Oc2ccc(Cl)cc2F)cc1C(F)(F)F [VI.24] |
| 4.67^[a] | O=C(c1ccc(Oc2ccc(S(F)(F)(F)(F)F)cc2)nc1C(F)(F)F)C1CC1 [V.43] |
| 2.39^[a] | O=C(Cn1cncn1)c1ccc(Oc2ccc(C(F)F)cc2)nc1Cl [VII.22] |
| 3.42^[a] | O=C(CCl)c1ccc(Oc2ccc(C(F)F)cc2)nc1Cl [VI.16] |
| 3.57^[a] | O=C(CBr)c1ccc(Oc2ccc(C(F)F)cc2)nc1Cl [VI.17] |
| 4.58^[a] | O=C(CBr)c1ccc(Oc2ccc(Cl)c(Cl)c2)nc1Cl [VI.07] |
| 2.96^[a] | O=C(Cn1cncn1)c1ccc(Oc2c(F)cc(Cl)cc2F)nc1C(F)(F)F [VII.33] |
| 4.19^[a] | O=C(CBr)c1ccc(Oc2ccc(Cl)cc2)nc1C(F)(F)F [VI.34] |
| 2.20^[a] | O=C(Cn1cncn1)c1cnc(Oc2ccccc2)cc1Cl [VII.05] |
| 4.07^[a] | O=C(CCl)c1ccc(Oc2ccc(OC(F)(F)F)cc2)nc1C(F)(F)F [VI.33] |
| 4.15^[a] | O=C(CCl)c1cnc(Oc2ccc(Cl)cc2F)cc1C(F)(F)F [VI.25] |
| 3.23^[a] | O=C(Cn1cncn1)c1ccc(Oc2ccc(Cl)cc2)nc1OC(F)(F)F [VII.18] |
| 2.61^[a] | O=C(Cn1cncn1)c1cnc(Oc2ccc(Br)cc2)cc1C(F)F [VII.41] |
| 3.26^[a] | CC(=O)c1ccc(Oc2ccc(C(F)F)cc2)nc1C(F)(F)F [V.32] |
| 3.23^[a] | O=C(Cn1cncn1)c1ccc(Oc2ccc(S(F)(F)(F)(F)F)cc2)nc1C(F)(F)F [VII.31] |
| 4.36^[a] | CC(=O)c1ncc(Oc2ccc(Cl)cc2)nc1Oc1ccc(Cl)cc1 [V.33] |
| 4.11^[a] | O=C(CCl)c1ccc(Oc2ccc(Cl)cc2F)nc1C(F)(F)F [VI.35] |
| 3.72^[a] | O=C(CCl)c1ccc(Oc2ccc(Cl)cc2)nc1Cl [VI.04] |
| 3.11^[a] | O=C(Cn1cncn1)c1ccc(Oc2ccc(S(F)(F)(F)(F)F)cc2)nc1Cl [VII.20] |
| 4.20^[a] | CCC(=O)c1ccc(Oc2ccc(Cl)cc2)nc1C(F)(F)F [V.45] |
| 4.26^[a] | O=C(CCl)c1ccc(Oc2c(F)cc(Cl)cc2F)nc1C(F)(F)F [VI.31] |
| 2.99^[a] | O=C(Cn1cncn1)c1ccc(Oc2ccc(Br)cc2)nc1C(F)(F)F [VII.24] |
| 2.94^[a] | Cc1cc(Cl)ccc1Oc1ccc(C(=O)Cn2cncn2)c(Cl)n1 [VII.10] |
| 2.41^[a] | O=C(Cn1cncn1)c1ccc(Oc2ccc(C(F)F)cc2)nc1C(F)(F)F [VII.42] |
| 3.57^[a] | CC(=O)c1cnc(Oc2ccc(Cl)cc2)cc1C(F)F [V.37] |

same assay, conditions: reversed phase HPLC column, method [a]: LC-UV, acidic range, 0.1% formic acid in water and acetonitrile as eluent

| chromatographic logP | Compound |
| --- | --- |
| 2.68 | OC(Cn1cncn1)c1cnc(Oc2ccc(Cl)cc2)cc1C(F)(F)F (stereo not drawn) [I.04, 1-[6-(4-chlorophenoxy)-4-(trifluoromethyl)-3-pyridyl]-2-(1,2,4-triazol-1-yl)ethanol] |
| 4.17 | O=C(c1ccc(Oc2ccc(Cl)cc2)nc1C(F)(F)F)C1CC1 [V.41, [6-(4-chlorophenoxy)-2-(trifluoromethyl)-3-pyridyl]-cyclopropyl-methanone] |

same assay, conditions: reversed phase HPLC column, method [a]; compounds of formula (VII), Table 4

| chromatographic logP | Compound |
| --- | --- |
| 2.92 | O=C(Cn1cncn1)c1cnc(Oc2ccc(Cl)cc2)cc1C(F)(F)F [VII.02, 1-[6-(4-chlorophenoxy)-4-(trifluoromethyl)-3-pyridyl]-2-(1,2,4-triazol-1-yl)ethanone] |

system: Puccinia recondita; assay: Example B: in vivo preventive test on Puccinia recondita (brown rust on wheat); details: 264 h, 500 ppm of active ingredient, wheat plants, preventive spray, evaluated 11 days after inoculation, read-out: efficacy
Procedure: (§1) Example B: In Vivo Preventive Test on Puccinia recondita (Brown Rust on Wheat) [table] The active ingredients are made soluble and homogenized in a mixture of Dimethyl sulfoxide/Acetone//Tween® 80 and then diluted in water to the desired concentration. The young plants of wheat are treated by spraying the active ingredient prepared as described above. Control plants are treated only with an aqueous solution of Acetone/Dimethyl sulfoxide/Tween® 80. After 24 hours, the plants are contaminated by spraying the leaves with an aqueous suspension of Puccinia recondita spores. The contaminated wheat plants are incubated for 24 hours at 20° C. and at 100% relative humidity and then for 10 days at 20° C. and at 70-80% relative humidity. The test is evaluated 11 days after the inoculation. 0% means an efficacy which corresponds to that of the control plants while an efficacy of 100% means that no disease is observed.

| Compound | pest or weed control at 500 ppm |
| --- | --- |
| OC(Cn1cncn1)c1cnc(Oc2ccc(Cl)cc2)cc1C(F)(F)F (stereo not drawn) [I.04, 1-[6-(4-chlorophenoxy)-4-(trifluoromethyl)-3-pyridyl]-2-(1,2,4-triazol-1-yl)ethanol] | 90 to 100% |
| O=C(Cn1cncn1)c1cnc(Oc2ccc(Cl)cc2)cc1C(F)(F)F [VII.02, 1-[6-(4-chlorophenoxy)-4-(trifluoromethyl)-3-pyridyl]-2-(1,2,4-triazol-1-yl)ethanone] | 90 to 100% |

system: Sphaerotheca fuliginea; assay: Example D: in vivo preventive test on Sphaerotheca fuliginea (powdery mildew on cucurbits); details: Podosphaera fuliginea, 360 h; 500 ppm of active ingredient; gherkin plants, preventive spray; evaluated 15 days after inoculation; read-out: efficacy
Procedure: Example D: In Vivo Preventive Test on Sphaerotheca fuliginea (Powdery Mildew on Cucurbits) [table] The active ingredients are made soluble and homogenized in a mixture of Dimethyl sulfoxide/Acetone//Tween® 80 and then diluted in water to the desired concentration. The young plants of gherkin are treated by spraying the active ingredient prepared as described above. Control plants are treated only with an aqueous solution of Acetone/Dimethyl sulfoxide/Tween® 80. After 24 hours, the plants are contaminated by spraying the leaves with an aqueous suspension of Sphaerotheca fuliginea spores. The contaminated gherkin plants are incubated for 72 hours at 18° C. and at 100% relative humidity and then for 12 days at 20° C. and at 70-80% relative humidity. The test is evaluated 15 days after the inoculation. 0% means an efficacy which corresponds to that of the control plants while an efficacy of 100% means that no disease is observed.

| Compound | pest or weed control at 500 ppm |
| --- | --- |
| OC(Cn1cncn1)c1cnc(Oc2ccc(Cl)cc2)cc1C(F)(F)F (stereo not drawn) [I.04, 1-[6-(4-chlorophenoxy)-4-(trifluoromethyl)-3-pyridyl]-2-(1,2,4-triazol-1-yl)ethanol] | 90 to 100% |
| O=C(Cn1cncn1)c1cnc(Oc2ccc(Cl)cc2)cc1C(F)(F)F [VII.02, 1-[6-(4-chlorophenoxy)-4-(trifluoromethyl)-3-pyridyl]-2-(1,2,4-triazol-1-yl)ethanone] | 90 to 100% |

system: Uromyces appendiculatus; assay: Example E: in vivo preventive test on Uromyces appendiculatus (bean rust); details: 264 h, 500 ppm of active ingredient, bean plants, preventive spray, evaluated 11 days after inoculation, read-out: efficacy
Procedure: as §1, with “E:” for “B:”, “Uromyces appendiculatus (Bean Rust)” for “Puccinia recondita (Brown Rust on Wheat)”, “bean” for “wheat”, “Uromyces appendiculatus” for “Puccinia recondita”

| Compound | pest or weed control at 500 ppm |
| --- | --- |
| OC(Cn1cncn1)c1cnc(Oc2ccc(Cl)cc2)cc1C(F)(F)F (stereo not drawn) [I.04, 1-[6-(4-chlorophenoxy)-4-(trifluoromethyl)-3-pyridyl]-2-(1,2,4-triazol-1-yl)ethanol] | 90 to 100% |
| O=C(Cn1cncn1)c1cnc(Oc2ccc(Cl)cc2)cc1C(F)(F)F [VII.02, 1-[6-(4-chlorophenoxy)-4-(trifluoromethyl)-3-pyridyl]-2-(1,2,4-triazol-1-yl)ethanone] | 80 to 89% |
